Assay results reported in US11779620B2 (priority 2020, dated 2023).

Experiments:
human PBMC cultures [1] = experiment: Cytokine, chemokine and growth factor levels in PBMC culture supernatants (medicinal mushroom blend study); assay type: cell-based; conditions: LPS-treated control cultures (10 ng/mL), 24 h, mean±SD
Procedure: The powder was handled in the following manner, using pyrogen-free disposables: A 100 mg/mL suspension was prepared in phosphate-buffered saline (PBS) and allowed to rehydrate and extract aqueous compounds for 1 hour at 20° C. under gentle agitation. The suspension was centrifuged at 400 g for 10 minutes, and the aqueous fraction harvested. Ethanol (95%) was added to the pellet and vortexed, and extraction of non-aqueous, ethanol-soluble compounds allowed for 1 hour at 20° C. under gentle agitation. The suspension was centrifuged at 400 g for 10 minutes, and the ethanol fraction harvested. The remaining solid pellet was resuspended in PBS. The aqueous and ethanol fractions were filtered through a 0.22-micron syringe filter before adding to cell cultures. The solid fraction was passed through homogenization spin columns (QIAshredder, Qiagen, […].), but were not filtered through a 0.22-micron filter. From each fraction, serial dilutions were made in pyrogen-free physiological saline. See also FIG. 9.
Peripheral venous blood was drawn from three healthy human donors upon written informed consent, as approval by the Sky Lakes Medical Center Institutional Review Board, Federalwide Assurance 2603. The blood was drawn into heparin vacutainer vials, and the peripheral blood mononuclear cells (PBMC) isolated using Lympholyte Poly by centrifugation for 35 minutes at 400×g. The PBMC were washed twice in PBS, counted, and the density adjusted to establish cultures with a cell density of 10^6/mL, using Roswell Park Memorial Institute (RPMI) 1640 medium containing penicillin, streptomycin, and fetal bovine serum.
The highly inflammatory lipopolysaccharide (LPS) from Salmonella enterica was used as a positive control for immune-cell activation. Serial dilutions of products or LPS (10 ng/mL) were added to cultures at a volume of 20 μL, and cultures were then incubated at 37° C., 5% CO2 for 24 hours. […] Untreated negative control cultures consisted of PBMC exposed to phosphate-buffered saline in the absence of test products. All treatments, including each dose of test product and each positive and negative control, were tested in triplicate. After 24 hours, cells were transferred to V-bottom microtiter plates, washed in PBS containing bovine serum albumin and sodium azide, and stained for 10 minutes with fluorochrome-labeled anti-CD3, anti-CD56, and anti-CD69 monoclonal antibodies at the recommended concentration. PBMC were then fixed in formalin. The fluorescence intensities for CD3, CD56, and CD69 were measured by flow cytometry, using an Attune acoustic-focusing flow cytometer (Thermo Fisher Scientific, Waltham, Mass., USA). Data analysis utilized gating on forward and side scatter to evaluate CD69 expression on lymphocyte versus monocyte/macrophage subsets. The lymphocyte subpopulation was further analyzed for CD69 expression on CD3−CD56+ NK cells, CD3+CD56+ NKT cells, CD3+CD56− T cells, and non-NK non-T lymphocytes.
After 24 hours of incubation, after transfer to V-bottom microtiter plates and before cells were stained for flow cytometry analysis, the culture supernatants were harvested from the PBMC cultures described above. Levels of cytokines, chemokines, and growth factors were quantified using Bio-Plex protein arrays (Bio-Rad Laboratories Inc., Hercules Calif., USA) and utilizing xMAP technology (Luminex, Austin, Tex., USA).

human PBMC cultures [2] = experiment: Induction of CD69 activation marker on immune cell subsets in PBMC cultures (Trametes versicolor study); assay type: cell-based; conditions: 24 h, positive controls LPS 10 ng/mL, IL-2 100 IU/mL, mean±SD

Substance: lipopolysaccharide [LPS]
- G-CSF level (human PBMC cultures [1]): 1,458±58 pg/mL
- IFN-γ level (human PBMC cultures [1]): 71 ± 2 pg/mL
- IL-1ra level (human PBMC cultures [1]): 8,134±473 pg/mL
- IL-1β level (human PBMC cultures [1]): 772 ± 28 pg/mL
- IL-10 level (human PBMC cultures [1]): 301 ± 15 pg/mL
- MCP-1 level (human PBMC cultures [1]): 2,052±35 pg/mL
- MIP-1α level (human PBMC cultures [1]): 2,116±0 pg/mL
- MIP-1β level (human PBMC cultures [1]): 6,497±814 pg/mL
- TNF-α level (human PBMC cultures [1]): 7,073±185 pg/mL
- VEGF level (human PBMC cultures [1]): 421 ± 17 pg/mL
- bFGF level (human PBMC cultures [1]): 221 ± 8 pg/mL
- CD69 percent change compared to untreated control cultures, NK cells (human PBMC cultures [2]): 114±10%
- CD69 percent change compared to untreated control cultures, NKT cells (human PBMC cultures [2]): 54±8.3%
- CD69 percent change compared to untreated control cultures, T lymphocytes (human PBMC cultures [2]): 19±2.1%
